Patent US10696707B2, “Polyene macrolide derivative” (Shionogi & Co., Ltd., priority 2014, dated 2020)

Tested on: red blood cells (5% RBC suspension)
Experiment: Test Example 2-2: in vitro hemolytic activity test (upper limit 200 μmol/L)
Format: cell-based
Conditions: Erythrocyte, 1 h, read-out: hemolysis IC50
Protocol: Nephrotoxic potentials of the compounds of the present invention whose X is —N(R^F)—CO—X^1 and X^1 is the group represented by formula (III) and T is —N(R^a5)— were investigated by in vitro hemolytic activity test under the condition that the upper limit was 200 μmol/L as the required concentration to 50% of hemolysis (IC50).
Defibrinated sterile blood was centrifuged at 700×g for 3 minutes and, and the supernatant was removed for 100% of red blood cells. After the cleaning with physiological saline, the washed blood cells was suspended in the medium (Earle's balanced salt sodium, bicarbonate, 0.1 g/L L-glutamine without phenol red), and was diluted by 5% (5% RBC suspension).
The washed blood was diluted by 5% in water for injection (solution of complete hemolysis), and was used as the indication of optical density for complete hemolysis.
The compounds of the present invention solution in DMSO (several and doubling dilutions starting from 10 mmol/L), DMSO as the negative control, and Amphotericin B as the positive control were used, and each 5 μL of these was added in to a well of V-form 96 well type microplate. Finally, the maximum concentration of the compounds of the present invention solution in DMSO was 200 μmol/L by adding 245 μL of the medium or 5% RBC suspension into the well.
Two hundred fifty μL of the solution of complete hemolysis was added into another well and the microplate was incubated at 37° C. in 5% of CO2 concentration for an hour.
After the incubation, each 100 μL of supernatants in wells was collected by centrifugation of the microplate at 300×g for 5 minutes and was located on a well of flat-form 96 well type microplate. An absorbance of each supernatant was measured at wavelength of 540 nm.
Percent hemolysis was calculated by using the followed equation. The required concentration to 50% of hemolysis (IC50) was calculated based on the percent hemolysis. […] Hemolysis (%)=(CR−VM)×100÷(VL−VR) Where:
CR: Absorbance of 5% RBC suspension incubated with the compounds of the present invention solution in DMSO
VM: Absorbance of medium incubated with the compounds of the present invention solution in DMSO
VL: Absorbance of solution of complete hemolysis
VR: Absorbance of 5% RBC suspension incubated with DMSO
The “>200” in the table means above IC50 value exceeded the upper concentration 200 μmol/L.

Row | Compound | IC50
1 | C[C@@H]1[C@H](O)[C@@H](C)/C=C/C=C/C=C/C=C/C=C/C=C/C=C/[C@H](O[C@@H]2O[C@H](C)[C@@H](O)[C@H](N)[C@@H]2O)C[C@@H]2O[C@](O)(C[C@@H](O)C[C@@H](O)[C@H](O)CC[C@@H](O)C[C@@H](O)CC(=O)O[C@H]1C)C[C@H](O)[C@H]2NC(=O)NNC(=O)C1(S(C)(=O)=O)CC1 [I-263] | > 200 µM
2 | C[C@@H]1[C@H](O)[C@@H](C)/C=C/C=C/C=C/C=C/C=C/C=C/C=C/[C@H](O[C@@H]2O[C@H](C)[C@@H](O)[C@H](N)[C@@H]2O)C[C@@H]2O[C@](O)(C[C@@H](O)C[C@@H](O)[C@H](O)CC[C@@H](O)C[C@@H](O)CC(=O)O[C@H]1C)C[C@H](O)[C@H]2NC(=O)NNS(=O)(=O)c1nnc[nH]1 [I-246] | > 200 µM

Same assay, conditions: Erythrocyte, 1 h; Test Example 2-2; hemolysis method 200 (upper concentration 200 μmol/L); 5% RBC suspension, 37° C., one hour; read-out: hemolysis IC50

Row | Compound | IC50
3 | C[C@@H]1[C@H](O)[C@@H](C)/C=C/C=C/C=C/C=C/C=C/C=C/C=C/[C@H](O[C@@H]2O[C@H](C)[C@@H](O)[C@H](N)[C@@H]2O)C[C@@H]2O[C@](O)(C[C@@H](O)C[C@@H](O)[C@H](O)CC[C@@H](O)C[C@@H](O)CC(=O)O[C@H]1C)C[C@H](O)[C@H]2NC(=O)NNCCN(C)C [I-78] | > 200 µM
4 | C[C@@H]1[C@H](O)[C@@H](C)/C=C/C=C/C=C/C=C/C=C/C=C/C=C/[C@H](O[C@@H]2O[C@H](C)[C@@H](O)[C@H](N)[C@@H]2O)C[C@@H]2O[C@](O)(C[C@@H](O)C[C@@H](O)[C@H](O)CC[C@@H](O)C[C@@H](O)CC(=O)O[C@H]1C)C[C@H](O)[C@H]2NC(=O)NNC(=O)[C@H](O)CO [I-223] | > 200 µM

Same assay, conditions: Test Example 2-2; hemolysis method 200 (upper concentration 200 μmol/L); 5% RBC suspension, 37° C., one hour; read-out: hemolysis IC50

Row | Compound | IC50
5 | C[C@@H]1[C@H](O)[C@@H](C)/C=C/C=C/C=C/C=C/C=C/C=C/C=C/[C@H](O[C@@H]2O[C@H](C)[C@@H](O)[C@H](N)[C@@H]2O)C[C@@H]2O[C@](O)(C[C@@H](O)C[C@@H](O)[C@H](O)CC[C@@H](O)C[C@@H](O)CC(=O)O[C@H]1C)C[C@H](O)[C@H]2NC(=O)NNC(=O)C1(C(N)=O)CC1 [I-256] | > 200 µM
6 | C[C@@H]1[C@H](O)[C@@H](C)/C=C/C=C/C=C/C=C/C=C/C=C/C=C/[C@H](O[C@@H]2O[C@H](C)[C@@H](O)[C@H](N)[C@@H]2O)C[C@@H]2O[C@](O)(C[C@@H](O)C[C@@H](O)[C@H](O)CC[C@@H](O)C[C@@H](O)CC(=O)O[C@H]1C)C[C@H](O)[C@H]2NC(=O)NNC(=S)NCCCN1CCOCC1 [I-217] | > 200 µM
7 | C[C@@H]1[C@H](O)[C@@H](C)/C=C/C=C/C=C/C=C/C=C/C=C/C=C/[C@H](O[C@@H]2O[C@H](C)[C@@H](O)[C@H](N)[C@@H]2O)C[C@@H]2O[C@](O)(C[C@@H](O)C[C@@H](O)[C@H](O)CC[C@@H](O)C[C@@H](O)CC(=O)O[C@H]1C)C[C@H](O)[C@H]2NC(=O)NNC(=O)c1ccccn1 [I-44] | > 200 µM
8 | C[C@@H]1[C@H](O)[C@@H](C)/C=C/C=C/C=C/C=C/C=C/C=C/C=C/[C@H](O[C@@H]2O[C@H](C)[C@@H](O)[C@H](N)[C@@H]2O)C[C@@H]2O[C@](O)(C[C@@H](O)C[C@@H](O)[C@H](O)CC[C@@H](O)C[C@@H](O)CC(=O)O[C@H]1C)C[C@H](O)[C@H]2NC(=O)NNC(=O)C1CCC(O)CC1 (some centres unmarked) [I-239] | > 200 µM
9 | C[C@@H]1[C@H](O)[C@@H](C)/C=C/C=C/C=C/C=C/C=C/C=C/C=C/[C@H](O[C@@H]2O[C@H](C)[C@@H](O)[C@H](N)[C@@H]2O)C[C@@H]2O[C@](O)(C[C@@H](O)C[C@@H](O)[C@H](O)CC[C@@H](O)C[C@@H](O)CC(=O)O[C@H]1C)C[C@H](O)[C@H]2NC(=O)NNC(=O)Nc1ccccn1 [I-221] | > 200 µM
10 | C[C@@H]1[C@H](O)[C@@H](C)/C=C/C=C/C=C/C=C/C=C/C=C/C=C/[C@H](O[C@@H]2O[C@H](C)[C@@H](O)[C@H](N)[C@@H]2O)C[C@@H]2O[C@](O)(C[C@@H](O)C[C@@H](O)[C@H](O)CC[C@@H](O)C[C@@H](O)CC(=O)O[C@H]1C)C[C@H](O)[C@H]2NC(=O)NNc1ccc(C(F)(F)F)cn1 [I-125] | > 200 µM
11 | C[C@@H]1[C@H](O)[C@@H](C)/C=C/C=C/C=C/C=C/C=C/C=C/C=C/[C@H](O[C@@H]2O[C@H](C)[C@@H](O)[C@H](N)[C@@H]2O)C[C@@H]2O[C@](O)(C[C@@H](O)C[C@@H](O)[C@H](O)CC[C@@H](O)C[C@@H](O)CC(=O)O[C@H]1C)C[C@H](O)[C@H]2NC(=O)NNC(=O)NC[C@H](O)CO [I-225] | > 200 µM
12 | C[C@@H]1[C@H](O)[C@@H](C)/C=C/C=C/C=C/C=C/C=C/C=C/C=C/[C@H](O[C@@H]2O[C@H](C)[C@@H](O)[C@H](N)[C@@H]2O)C[C@@H]2O[C@](O)(C[C@@H](O)C[C@@H](O)[C@H](O)CC[C@@H](O)C[C@@H](O)CC(=O)O[C@H]1C)C[C@H](O)[C@H]2NC(=O)NNS(=O)(=O)c1c[nH]cn1 [I-214] | > 200 µM
13 | C[C@@H]1[C@H](O)[C@@H](C)/C=C/C=C/C=C/C=C/C=C/C=C/C=C/[C@H](O[C@@H]2O[C@H](C)[C@@H](O)[C@H](N)[C@@H]2O)C[C@@H]2O[C@](O)(C[C@@H](O)C[C@@H](O)[C@H](O)CC[C@@H](O)C[C@@H](O)CC(=O)O[C@H]1C)C[C@H](O)[C@H]2NC(=O)NNC(=O)c1cccnc1N [I-198] | > 200 µM
14 | C[C@@H]1[C@H](O)[C@@H](C)/C=C/C=C/C=C/C=C/C=C/C=C/C=C/[C@H](O[C@@H]2O[C@H](C)[C@@H](O)[C@H](N)[C@@H]2O)C[C@@H]2O[C@](O)(C[C@@H](O)C[C@@H](O)[C@H](O)CC[C@@H](O)C[C@@H](O)CC(=O)O[C@H]1C)C[C@H](O)[C@H]2NC(=O)NNC(=O)NCC(O)CCl (some centres unmarked) [I-229] | > 200 µM
15 | C[C@@H]1[C@H](O)[C@@H](C)/C=C/C=C/C=C/C=C/C=C/C=C/C=C/[C@H](O[C@@H]2O[C@H](C)[C@@H](O)[C@H](N)[C@@H]2O)C[C@@H]2O[C@](O)(C[C@@H](O)C[C@@H](O)[C@H](O)CC[C@@H](O)C[C@@H](O)CC(=O)O[C@H]1C)C[C@H](O)[C@H]2NC(=O)NNC(=O)CNC(=O)Nc1cccnc1 [I-123] | > 200 µM
16 | C[C@@H]1[C@H](O)[C@@H](C)/C=C/C=C/C=C/C=C/C=C/C=C/C=C/[C@H](O[C@@H]2O[C@H](C)[C@@H](O)[C@H](N)[C@@H]2O)C[C@@H]2O[C@](O)(C[C@@H](O)C[C@@H](O)[C@H](O)CC[C@@H](O)C[C@@H](O)CC(=O)O[C@H]1C)C[C@H](O)[C@H]2NC(=O)NNc1ncccc1C(F)(F)F [I-124] | > 200 µM
17 | C[C@@H]1[C@H](O)[C@@H](C)/C=C/C=C/C=C/C=C/C=C/C=C/C=C/[C@H](O[C@@H]2O[C@H](C)[C@@H](O)[C@H](N)[C@@H]2O)C[C@@H]2O[C@](O)(C[C@@H](O)C[C@@H](O)[C@H](O)CC[C@@H](O)C[C@@H](O)CC(=O)O[C@H]1C)C[C@H](O)[C@H]2NC(=O)NNC(=O)C(C)(C)CO [I-232] | > 200 µM
18 | C[C@@H]1[C@H](O)[C@@H](C)/C=C/C=C/C=C/C=C/C=C/C=C/C=C/[C@H](O[C@@H]2O[C@H](C)[C@@H](O)[C@H](N)[C@@H]2O)C[C@@H]2O[C@](O)(C[C@@H](O)C[C@@H](O)[C@H](O)CC[C@@H](O)C[C@@H](O)CC(=O)O[C@H]1C)C[C@H](O)[C@H]2NC(=O)NNC(=O)[C@H](O)C(C)(C)CO [I-245] | > 200 µM
19 | C[C@@H]1[C@H](O)[C@@H](C)/C=C/C=C/C=C/C=C/C=C/C=C/C=C/[C@H](O[C@@H]2O[C@H](C)[C@@H](O)[C@H](N)[C@@H]2O)C[C@@H]2O[C@](O)(C[C@@H](O)C[C@@H](O)[C@H](O)CC[C@@H](O)C[C@@H](O)CC(=O)O[C@H]1C)C[C@H](O)[C@H]2NC(=O)NNC(=O)NCC(N)=O [I-220] | > 200 µM
20 | CCCC(=O)NNC(=O)N[C@H]1[C@@H]2C[C@@H](O[C@@H]3O[C@H](C)[C@@H](O)[C@H](N)[C@@H]3O)/C=C/C=C/C=C/C=C/C=C/C=C/C=C/[C@H](C)[C@@H](O)[C@@H](C)[C@H](C)OC(=O)C[C@H](O)C[C@H](O)CC[C@@H](O)[C@H](O)C[C@H](O)C[C@](O)(C[C@@H]1O)O2 [I-209] | > 200 µM
